{
  "source": "patent US20190125864A1",
  "about": "“COMBINATION THERAPY OF RAMUCIRUMAB AND ABEMACICLIB FOR USE IN TREATMENT OF MANTLE CELL LYMPHOMA” (Eli Lilly and Company, priority 2016, published 2019)",
  "tested_on": "human Mino xenografts",
  "assay": "IVEF study: growth inhibition of subcutaneous Mino xenografts (mantle cell lymphoma) in mice",
  "type": "in vivo",
  "conditions": "for % ΔT/C: day 53, baseline day 32",
  "protocol": "This study evaluates the overall sensitivity of the Mino xenograft model for mantle cell lymphoma (MCL) to growth inhibition by abemaciclib. Accordingly, mice are implanted subcutaneously with human Mino xenografts treated once-daily for 28 days (QD×28) with 25 or 50 mg/kg of abemaciclib monomesylate (“compound”). In addition the response of this model to single-agent DC101, an antibody inhibitor of VEGFR2, is also evaluated as well as the combination of this antibody with abemaciclib. DC101, which is a mouse surrogate of ramucirumab, is evaluated in these studies at a dose of 20 mg/kg given twice-weekly over a period of 4 weeks (BIW×4) whereas mice in the combination group are given this dose of DC101 plus 25 mg/kg of abemaciclib. Tumor volume measurements are taken periodically to determine the effects of the various treatments on tumor growth and periodic body weight measurements are used as a general indicator of tolerability.\nFemale Fox Chase CB17SCID (Harlan Laboratories) mice are used for these studies. The animals are housed until they reach 18-20 […] in size.\nThe compound is formulated in 1% hydroxyethyl cellulose (HEC) in 25 mM phosphate buffer (PB) pH=2. The compound is formulated on a weekly basis and stored at 4° C. For the efficacy studies, the compound is administered by oral gavage once-daily for 28 days (PO, QD×28) at doses of 25 or 50 mg/kg using 0.2 ml/dose beginning on day 33 after tumor implantation. The control group is given 1% HEC vehicle according to the same schedule for the compound. The mouse surrogate for ramucirumab known as DC101 is formulated in phosphate buffered saline (PBS) and is given twice-weekly (BIW) for 4 weeks as an intraperitoneal (IP) injection at a dose of 20 mg/kg beginning on day 34. Mice in the combination group are given 25 mg/kg of the compound and 20 mg/kg of DC101 following the schedules outlined above for the monotherapy groups.\nThe human MCL line Mino is grown in RPMI 1640 medium+20% fetal bovine serum (FBS). Sub-confluent cells are harvested and rinsed twice with Hank's balanced saline solution (HBSS) without serum. For subcutaneous tumors, growth is initiated by subcutaneous injection of 5×10^6 cells in a 1:1 mixture of HBSS and MATRIGEL® (BD Bioscience, Franklin Lakes, N.J.) in the rear flank of each subject animal. When mean tumors volumes reach approximately 150 mm^3 in size, the animals are randomized by tumor size and body weight using a proprietary block randomization allocation tool and placed into their respective treatment groups using 7 animals per group.\nTumor size and body weight are captured using WEB DIRECTOR™. Tumor volume (V) is estimated by using the formula: V=0.536L×W^2 where L=larger of measured diameter and W=smaller of perpendicular diameter. The tumor volume data is transformed to a log scale to equalize variance across time and treatment groups. The log volume data ae analyzed with a two-way repeated measures analysis of variance by time and treatment using the MIXED procedures in SAS software (Version 9.3). The correlation model for the repeated measures is Spatial Power. Treated groups are compared to the control group at each time point. The MIXED procedure is also used separately for each treatment group to calculate adjusted means and standard errors at each time point. Both analyses accounted for the autocorrelation within each animal and the loss of data that occur when animals with large tumors are removed from the study early. The adjusted means and standard errors are plotted for each treatment group versus time.\nRelative changes in tumor volume (% ΔT/C) are calculated using the tumor volume measurements taken on the day (day 53) when the control group has to be sacrificed due to tumor sizes that exceeded the threshold defined by ethical guidelines. […]",
  "data": [
    {"smiles": "CCN1CCN(Cc2ccc(Nc3ncc(F)c(-c4cc(F)c5nc(C)n(C(C)C)c5c4)n3)nc2)CC1", "note": "[Compound, [5-(4-ethyl-piperazin-1-ylmethyl)-pyridin-2-yl]-[5-fluoro-4-(7-fluoro-3-isopropyl-2-methyl-3H-benzoimidazol-5-yl)-pyrimidin-2-yl]-amine]", "values": [
      {"measurement": "% ΔT/C", "setting": "25 mg/kg Compound PO QD×28, 25 mg/kg", "result": 5.2, "unit": "%"},
      {"measurement": "% ΔT/C", "setting": "25 mg/kg Compound PO QD×28, listed as compound, 25 mg/kg", "result": "approximately 5%"},
      {"measurement": "% ΔT/C", "setting": "50 mg/kg Compound PO QD×28, negative value = % regression", "result": "−63.6", "unit": "%"},
      {"measurement": "Mean Tumor Volume", "setting": "day 53, 25 mg/kg Compound PO QD×28, CB17SCID mice, subcutaneous Mino xenografts", "result": 317.4, "unit": "mm^3"},
      {"measurement": "Mean Tumor Volume", "setting": "day 53, 50 mg/kg Compound PO QD×28, CB17SCID mice, subcutaneous Mino xenografts", "result": 55.4, "unit": "mm^3"},
      {"measurement": "mice achieved a partial response (PR)", "setting": "day 53, 50 mg/kg abemaciclib, 7 of 7 mice", "result": 100, "unit": "%"},
      {"measurement": "mean tumor volume reduced (regression)", "setting": "day 53, 50 mg/kg compound", "result": 64, "unit": "%"},
      {"measurement": "Mean Tumor Volume", "setting": "day 60 (last day of dosing), 25 mg/kg Compound PO QD×28", "result": 348.6, "unit": "mm^3"},
      {"measurement": "Mean Tumor Volume", "setting": "day 60 (last day of dosing), 50 mg/kg Compound PO QD×28", "result": 37.9, "unit": "mm^3"}
    ]}
  ]
}
